Source: US20140275257A1, “N-ACETYL CYSTEINE COMPOSITIONS IN THE TREATMENT OF SYSTEMIC LUPUS ERYTHEMATOSUS” (Foundation for the State University of New York, priority 2013, published 2014)

Columns and labels:
Assay type in all cases: in vivo, human
SLE patients [1] = test: Tolerance and safety, double-blind placebo-controlled pilot study of NAC in SLE
Description: 36 patients with stable disease were enrolled in a double-blind placebo-controlled treatment trial with N-acetylcysteine (NAC; FDA approval, IND No: 101,320; clinicaltrials.gov identifier: NCT00775476). SLE patients were randomized to receive either placebo (placebo group—dextrose) or NAC (test group) in one of three treatment arms of increasing doses for three months: 600 mg twice daily (Dose 1), 1,200 mg twice daily (Dose 2), or 2,400 mg twice daily (Dose 3). 12 patients were enrolled per treatment arm, 9 received NAC while 3 received placebo.
At each visit, patients were specifically asked about common side effects (nausea, bloating, bad taste) seen in prior trials These side effects were reviewed by the Data Safety and Monitoring Board (DSMB) bi-annually. Tolerance and safety were primary clinical outcomes.
All 24 patients in Dosing Group 1 (1.2 g/day NAC) and 2 (2.4 g/day NAC) completed the treatment and none of the […] in Dosing Group 1 (1.2 g/day NAC) or 2 (2.4 g/day NAC) reported unpleasant smell or taste. Three of 12 patients in Dosing Group 3 (4.8 g/day) dropped out (Table 6) due to 1) heartburn after 26 days, which resolved after discontinuing the capsules; 2) recurrent nausea and one-time vomiting after 46 days, with resolution after discontinuing the capsules; 3) headaches, which were eliminated by halving the dose to 2.4 g/day. Since all three patients reporting intolerance received NAC, in accordance with the DSMP, no higher dose was initiated. Following the last Dosing Group 3 visit, the study was un-blinded.

SLE patients [2] = test: British Isles Lupus Assessment Group (BILAG) score in NAC pilot study; conditions: for BILAG: all patients treated with NAC, baseline 26.2
Description: The BILAG index is more comprehensive than the SLEDAI, recording clinical disease activity in 8 different organ systems for a total of 101 items. Each item is measured qualitatively by clinical observation (yes/no, improving/same/worse/new) or quantitatively by measuring hematologic and renal lab values. […] Normally, a total score is not calculated. However, it can be converted into a disease activity scale by assigning points to the alphabetical score: A=9, B=3, C=1, D=0, E=0, with a maximum potential score of 72. (Lam, G. K. W. and Petri, M., “Assessment of systemic lupus erthematosus,” Clin. Exp. Rheumatol., 23 (Supp. 39): S120-S132 (2005)). The classical BILAG index was subsequently updated as the BILAG 2004 index. […] Development and initial validation of an updated version of the British Isles Lupus Assessment Group's disease activity index for patients with systemic lupus erythematosus,” Rheumatology, 44: 902-906 (2005). According to the BILAG 2004 index, all features must be attributable to SLE and refer to the last 4 weeks compared with the previous 4 weeks; in some manifestations, it may be difficult to differentiate SLE from other causes as there may not be any specific test and the decision would then lies with the physician's judgement on the balance of probabilities. The term “improvement” is defined as (a) the amount that is sufficient for consideration of reduction in therapy; and (b) that which is present ≧2 weeks of the previous 4 weeks. Scoring for features is indicated as: (0) not present; (1) Improving; (2) Same; (3) Worse; (4) New.
A complete physical examination of the cardiovascular, respiratory, gastrointestinal, musculoskeletal, neurological systems, skin, head, neck, sinuses, nasal and oral cavities were performed at each visit. SLE disease activity was assessed by using the British Isles Lupus Assessment Group (BILAG) (Isenberg, D. A. et al., “BILAG 2004. Development and initial validation of an updated version of the British Isles Lupus Assessment Group's disease activity index for patients with systemic lupus erythematosus,” Rheumatology 44(7): 902-906 (2005)) and SLE Disease Activity Index (SLEDAI) (Bombardier, C. et al., “Derivation of the SLEDAI. A disease activity index for lupus patients,” Arth. Rheum., 35: 630-640 (1992)). The concurrent use and dosage of prednisone and other medications were documented.
Lupus disease activity was measured by SLEDAI and BILAG and fatigue was evaluated by FAC at baseline (visit 1) as well as monthly during a 3-month intervention (visits 2-4) and after a 1-month washout period (visit 5).
Overall clinical effectiveness of NAC relative to placebo was analyzed with multilevel modeling as implemented in the STATA routine XTMIXED (from StataCorp, College Station, Tex.), with the three nested levels being drug group, subject within drug group and study visit within subject. All models included fixed effects for drug group, study visit and the drug group by study visit interaction along with random intercepts at each design level. […] The reduction in lupus disease activity SLEDAI scores was greater for the NAC than placebo group, as indicated by a significant visit by drug interaction (z=−2.14, p=0.033). The reduction in BILAG scores was also greater for NAC than placebo group. The overall effect was statistically significant as indicated by a significant visit by drug interaction (z=−2.62, p=0.009). Two tailed paired t-test was used to assess the effects of placebo and of each and all NAC doses on clinical indices and biomarkers recorded on visits 2-5 relative to visit 1; p<0.05 was considered significant. Patients and controls were compared with two-tailed unpaired t-test.

[3] = test system: anti-double-stranded DNA, C3, and C4; test: Lupus-relevant laboratory tests (anti-double-stranded DNA, C3, C4)
From the text: Routine blood tests included complete blood count, liver and kidney function test, urinalysis and lupus-relevant laboratory tests, such as anti-double-stranded DNA, C3, and C4.

**Q.** Which results are given for CC(=O)N[C@@H](CS)C(=O)O [NAC, N-acetyl-L-cysteine]?
**A.** patients reporting unpleasant smell or taste (SLE patients [1]; Dosing Group 1 (1.2 g/day NAC) or 2 (2.4 g/day NAC)): none; patients dropped out (heartburn; recurrent nausea and vomiting; headaches) (SLE patients [1]; Dosing Group 3 (4.8 g/day), all three received NAC): Three of 12; safety and tolerance (SLE patients [1]; all SLE patients, up to 2.4 g/day): safe and tolerated; patients with reversible nausea (SLE patients [1]; patients receiving 4.8 g/day): 33%; effect on SLE disease activity, BILAG (SLE patients [2]; NAC dose 1 (1.2 g/day)): did not influence; effect on BILAG (SLE patients [2]; NAC dose 2 (2.4 g/day) and dose 3 (4.8 g/day), after 1 month (p=0.029) and 3 months (p=0.0009)): reduced; effect on BILAG (mixed model analysis) (SLE patients [2]; NAC dosing group 3 (4.8 g/day), XTMIXED z=−2.19, p=0.029): significant reduction; reduction in BILAG relative to placebo (mixed model analysis) (SLE patients [2]; NAC groups, visit by drug interaction, XTMIXED z=−2.62, p=0.009): greater; swollen joint count (BILAG component) (SLE patients [2]; after 3-month NAC treatment with dose 3, XTMIXED z=−2.0, p=0.046): reduced; swollen joint count (BILAG component) (SLE patients [2]; after 3-month NAC treatment, all doses combined, XTMIXED z=−2.2, p=0.028): reduced; BILAG (SLE patients [2]; after 1 month (visit 2), p=0.0158): 22.3; BILAG (SLE patients [2]; after 2 months (visit 3), p=0.0223): 22.2; C3 ([3]; NAC-treated patients): not affected; C4 ([3]; NAC-treated patients): not affected; Anti-DNA ([3]; all NAC doses considered together, after 1 month, baseline 78.9±45.2 IU/ml, p=0.049): 19.5±6.0 IU/ml
